# Assay results as given in patent publication US7270805B1, “Skin lightening agents, compositions and methods” (Conopco, Inc., priority 2006, dated 2007).
# System: Melanoderm cultures
# Assay: Solvable melanin assay on Melanoderm cultures (3-D skin model)
# Format: cell-based
# Settings: for OD = 490 nm (melanin content, Solvable melanin assay): Melanoderm cultures fed every other day for 2 weeks, DMSO control 1.292, untreated 1.259
# Method: This experiment was carried out using Melanoderm cultures. Luminescence was measured using a chromameter to assay the degree of melanization of a 3-D skin model.
# Method for Melanoderm Cultures
# Melanoderm cultures were obtained from MatTek Corporation, Ashland, Mass. The Melanoderm was maintained according to the manufacturer's instructions. The basal media used for the maintenance of the Melanoderm cultures was DMEM supplemented with unspecified quantities of Epidermal growth factor, Insulin, Hydrocortisone, and proprietary epidermal differentiation compounds, in addition to anti-fungal and antibiotics.
# For the long term maintenance of the Melanoderms, the basal media was supplemented with both bFGF and a-MSH, compounds which are stimulators of melanocyte growth and melanogenesis. The cultures were fed every other day for a total of 2 weeks—fresh active preparations, prepared in DMSO or culture media, were also applied to the Melanoderms when feeding was performed. Each treatment condition was done in duplicate and digital photographs were taken of the Melanoderm cultures to assess overall pigmentation. As well, microscopic images of the Melanoderms were done to assess the cell viability of the keratinocytes and melanocytes. For further evidence that the treatments were/not cytotoxic, an LDH assay (Promega, Madison, Wis.) was performed on the supernatants from 24 hour post-treatment cultures.
# To prepare tissues for assay:
# After treatment, tissues are usually frozen until completion of the experiment. Thaw tissues, a few at a time and place in D-PBS to remove excess phenol red from the culture medium and residual test article. Remove a single tissue from the insert. Blot dry and place in 1.7 ml. microfuge tube. Repeat for all samples. Add 250 ul Solvable™ (Tissue and Gel Solubilizer 0.5 M—Packard BioScience Co. Catalogue No. 6NE9100 (NEF910)). Close the tube and make sure that the tissue is completely submerged. Incubate at 60° C. overnight along with standards. In the morning, vortex the samples. Sometimes thick tissues will require additional time to complete the solution process. To prepare standard: Dissolve Melanin (Sigma cat. M 8631) in Solvable at 1 mg/ml. The solution may be warmed gently for 15 minutes at 37° C. Store solution in dark. To prepare standard curve: Prepare dilutions from the standard containing 0 ug to 250 ug of melanin in a total of 250 ul Solvable. Incubate dilutions along with samples. To read assay: Cool samples and standards. Centrifuge at 13,000 rpm for 5 minutes to pellet. Fill microwell plate (C-96) with 200 ul each of samples and standards. There is some foaming of samples when pipetted. Blow gently across the samples to break bubbles prior to reading the plate. Read plate at […].
compound,measurement,setting,value
CCC(=O)n1c(=O)sc2ccccc21 [3-propionylbenzothiazol-2-one],"OD = 490 nm (melanin content, Solvable melanin assay)",125 uM,1.522
same,"OD = 490 nm (melanin content, Solvable melanin assay)",250 uM,1.509
same,"OD = 490 nm (melanin content, Solvable melanin assay)",375 uM,1.377
same,"OD = 490 nm (melanin content, Solvable melanin assay)",500 uM,0.889
same,"OD = 490 nm (melanin content, Solvable melanin assay)",750 uM,0.727
same,"OD = 490 nm (melanin content, Solvable melanin assay)",1000 uM,0.184
same,effect on melanin synthesis,"conclusion from Table 5, Melanoderm cultures",reduce melanin synthesis
